Source: paper PMC12446476 (Nature Communications, 2025)
Where “and” joins values, the source holds several entries; their conditions need not be identical. Equal entries are not always repeated.

Test system: N. gonorrhoeae
Test: N. gonorrhoeae murine vaginal infection model, efficacy
Format: in vivo, mouse
Conditions: BID
Procedure: The N. gonorrhoeae female mouse vaginal model[45] was performed in accordance with the Guide for Care and Use of Laboratory Animals[75]. Animal rooms were maintained at a temperature range of 20–24 °C and humidity between 30% and 70%, with 12 h light/dark cycles. Ovariectomized BALB/c female mice (5–6 weeks, BioLASCO Taiwan Co., Ltd.) were treated with estradiol (0.23 mg/mouse) two days before infection and on the day of infection. Ovariectomized mice were used to avoid staging mice before treating them with estradiol. Beginning two days prior to infection and maintained until the end of the study, animals were treated twice daily with streptomycin (1.2 mg/mouse) and vancomycin (0.6 mg/mouse) each via intraperitoneal (IP) injection and received trimethoprim sulfate in the drinking water (0.4 mg/mL) to control vaginal microflora. Animals were anesthetised with pentobarbital (80 mg/kg), the vagina was rinsed with 50 mM HEPES (pH 7.4), and then inoculated with N. gonorrhoeae in pre-warmed PBS (0.02 mL/mouse containing ~1 × 10^5 CFU).
Control groups received either a single IP injection of ceftriaxone or 5% dextrose (vehicle) twice daily. Animals were sacrificed via CO2 asphyxiation at either 2 h (baseline), 26 and/or 50 h post-infection. Vaginal lavage was performed twice with 200 µL GC broth containing 0.05% saponin to recover bacteria. Bacterial burden in the lavage fluids was determined by performing 10-fold serial dilutions and plating on chocolate agar plates. Four strains were assessed using the model; ATCC 700825 is naturally streptomycin-resistant, whereas AR Bank0179-15, AR Bank0181-17 and WHO X-07 are derivatives of AR Bank0179, AR Bank0181 and WHO X, respectively, that were engineered for streptomycin resistance for use in the model.

[1] = Data 4, N. gonorrhoeae WHO X-07, ovariectomized BALB/c, 20 mg/kg PO, 24h, individual animals, 20 mg/kg
[2] = Data 4, N. gonorrhoeae WHO X-07, ovariectomized BALB/c, 20 mg/kg PO, 48h, individual animals, 20 mg/kg
[3] = Data 4, N. gonorrhoeae WHO X-07, ovariectomized BALB/c, 30 mg/kg PO, 24h, individual animals, 30 mg/kg
[4] = Data 4, N. gonorrhoeae WHO X-07, ovariectomized BALB/c, 30 mg/kg PO, 48h, individual animals, 30 mg/kg
[5] = Data 4, N. gonorrhoeae WHO X-07, ovariectomized BALB/c, 40 mg/kg PO, 24h, individual animals, 40 mg/kg
[6] = Data 4, N. gonorrhoeae WHO X-07, ovariectomized BALB/c, 40 mg/kg PO, 48h, individual animals, 40 mg/kg
[7] = Data 4, N. gonorrhoeae WHO X-07, ovariectomized BALB/c, 80 mg/kg PO, 24h, individual animals, 80 mg/kg
[8] = Data 4, N. gonorrhoeae WHO X-07, ovariectomized BALB/c, 80 mg/kg PO, 48h, individual animals, 80 mg/kg
[9] = Data 4, N. gonorrhoeae WHO X-07, ovariectomized BALB/c, 160 mg/kg PO, 24h, individual animals, 160 mg/kg
[10] = Data 4, N. gonorrhoeae WHO X-07, ovariectomized BALB/c, 160 mg/kg PO, 48h, individual animals
[11] = N. gonorrhoeae AR Bank0179-15, vaginal lavage, individual mice, Debio 1453P 10 mg/kg PO, 24h
[12] = N. gonorrhoeae AR Bank0179-15, vaginal lavage, individual mice, Debio 1453P 10 mg/kg PO, 48h
[13] = N. gonorrhoeae AR Bank0179-15, vaginal lavage, individual mice, Debio 1453P 20 mg/kg PO, 24h
[14] = N. gonorrhoeae AR Bank0179-15, vaginal lavage, individual mice, Debio 1453P 20 mg/kg PO, 48h
[15] = N. gonorrhoeae AR Bank0179-15, vaginal lavage, individual mice, Debio 1453P 30 mg/kg PO, 24h
[16] = N. gonorrhoeae AR Bank0179-15, vaginal lavage, individual mice, Debio 1453P 30 mg/kg PO, 48h
[17] = N. gonorrhoeae AR Bank0179-15, vaginal lavage, individual mice, Debio 1453P 40 mg/kg PO, 24h
[18] = N. gonorrhoeae AR Bank0179-15, vaginal lavage, individual mice, Debio 1453P 40 mg/kg PO, 48h
[19] = N. gonorrhoeae AR Bank0179-15, vaginal lavage, individual mice, Debio 1453P 80 mg/kg PO, 24h
[20] = N. gonorrhoeae AR Bank0179-15, vaginal lavage, individual mice, Debio 1453P 80 mg/kg PO, 48h
[21] = N. gonorrhoeae AR Bank0181-17, vaginal lavage, individual mice, Debio 1453P 20 mg/kg PO, 24h
[22] = N. gonorrhoeae AR Bank0181-17, vaginal lavage, individual mice, Debio 1453P 30 mg/kg PO, 24h
[23] = N. gonorrhoeae AR Bank0181-17, vaginal lavage, individual mice, Debio 1453P 40 mg/kg PO, 24h
[24] = N. gonorrhoeae AR Bank0181-17, vaginal lavage, individual mice, Debio 1453P 80 mg/kg PO, 24h
[25] = N. gonorrhoeae ATCC 700825, vaginal lavage, individual mice, Debio 1453P 10 mg/kg PO, 24h
[26] = N. gonorrhoeae ATCC 700825, vaginal lavage, individual mice, Debio 1453P 20 mg/kg PO, 24h

## Cc1c(CN(C)C(=O)/C=C/c2cnc3c(c2)N[C@H](C)[C@H](OP(=O)([O-])[O-])C(=O)N3)oc2ccccc12.[Na+].[Na+] [Debio 1453 P]
[1]
  CFU/mL lavage fluid: 780000 CFU/mL lavage fluid and 510000 CFU/mL lavage fluid and 2110000 CFU/mL lavage fluid and 820000 CFU/mL lavage fluid and 1010000 CFU/mL lavage fluid
  Log10(CFU/mL lavage fluid): 5.89 Log10(CFU/mL lavage fluid) and 5.71 Log10(CFU/mL lavage fluid) and 6.32 Log10(CFU/mL lavage fluid) and 5.91 Log10(CFU/mL lavage fluid) and 6.00 Log10(CFU/mL lavage fluid)
[2]
  CFU/mL lavage fluid: 2660000 CFU/mL lavage fluid and 620000 CFU/mL lavage fluid and 3200000 CFU/mL lavage fluid and 920000 CFU/mL lavage fluid and 870000 CFU/mL lavage fluid
  Log10(CFU/mL lavage fluid): 6.42 Log10(CFU/mL lavage fluid) and 5.79 Log10(CFU/mL lavage fluid) and 6.51 Log10(CFU/mL lavage fluid) and 5.96 Log10(CFU/mL lavage fluid) and 5.94 Log10(CFU/mL lavage fluid)
[3]
  CFU/mL lavage fluid: 740000 CFU/mL lavage fluid and 760000 CFU/mL lavage fluid and 840000 CFU/mL lavage fluid and 440000 CFU/mL lavage fluid and 700000 CFU/mL lavage fluid
  Log10(CFU/mL lavage fluid): 5.87 Log10(CFU/mL lavage fluid) and 5.88 Log10(CFU/mL lavage fluid) and 5.92 Log10(CFU/mL lavage fluid) and 5.64 Log10(CFU/mL lavage fluid) and 5.85 Log10(CFU/mL lavage fluid)
[4]
  CFU/mL lavage fluid: 790000 CFU/mL lavage fluid and 1090000 CFU/mL lavage fluid and 46000 CFU/mL lavage fluid and 550000 CFU/mL lavage fluid and 1250000 CFU/mL lavage fluid
  Log10(CFU/mL lavage fluid): 5.90 Log10(CFU/mL lavage fluid) and 6.04 Log10(CFU/mL lavage fluid) and 4.66 Log10(CFU/mL lavage fluid) and 5.74 Log10(CFU/mL lavage fluid) and 6.10 Log10(CFU/mL lavage fluid)
[5]
  CFU/mL lavage fluid: 2240000 CFU/mL lavage fluid and 380000 CFU/mL lavage fluid and 92000 CFU/mL lavage fluid and 77000 CFU/mL lavage fluid and 610000 CFU/mL lavage fluid
  Log10(CFU/mL lavage fluid): 6.35 Log10(CFU/mL lavage fluid) and 5.58 Log10(CFU/mL lavage fluid) and 4.96 Log10(CFU/mL lavage fluid) and 4.89 Log10(CFU/mL lavage fluid) and 5.79 Log10(CFU/mL lavage fluid)
[6]
  CFU/mL lavage fluid: 123000 CFU/mL lavage fluid and 55000 CFU/mL lavage fluid and 380000 CFU/mL lavage fluid and 85000 CFU/mL lavage fluid and 1000000 CFU/mL lavage fluid
  Log10(CFU/mL lavage fluid): 5.09 Log10(CFU/mL lavage fluid) and 4.74 Log10(CFU/mL lavage fluid) and 5.58 Log10(CFU/mL lavage fluid) and 4.93 Log10(CFU/mL lavage fluid) and 6.00 Log10(CFU/mL lavage fluid)
[7]
  CFU/mL lavage fluid: 5 CFU/mL lavage fluid and 295 CFU/mL lavage fluid and 380 CFU/mL lavage fluid and 10 CFU/mL lavage fluid
  Log10(CFU/mL lavage fluid): 0.70 Log10(CFU/mL lavage fluid) and 2.47 Log10(CFU/mL lavage fluid) and 2.58 Log10(CFU/mL lavage fluid) and 1.00 Log10(CFU/mL lavage fluid)
[8]
  CFU/mL lavage fluid: 55 CFU/mL lavage fluid and <5 CFU/mL lavage fluid and 5 CFU/mL lavage fluid
  Log10(CFU/mL lavage fluid): 1.74 Log10(CFU/mL lavage fluid) and <0.70 Log10(CFU/mL lavage fluid) and 0.70 Log10(CFU/mL lavage fluid)
[9]
  CFU/mL lavage fluid: <5 CFU/mL lavage fluid and 30 CFU/mL lavage fluid and 5 CFU/mL lavage fluid
  Log10(CFU/mL lavage fluid): <0.70 Log10(CFU/mL lavage fluid) and 1.48 Log10(CFU/mL lavage fluid) and 0.70 Log10(CFU/mL lavage fluid)
[10]
  CFU/mL lavage fluid: <5 CFU/mL lavage fluid
  Log10(CFU/mL lavage fluid): <0.70 Log10(CFU/mL lavage fluid)
[11]
  CFU/mL lavage fluid: 390000 CFU/mL and 85000 CFU/mL and 46000 CFU/mL and 59000 CFU/mL and 77000 CFU/mL
  Log10(CFU/mL lavage fluid): 5.59 Log10(CFU/mL lavage fluid) and 4.93 Log10(CFU/mL lavage fluid) and 4.66 Log10(CFU/mL lavage fluid) and 4.77 Log10(CFU/mL lavage fluid) and 4.89 Log10(CFU/mL lavage fluid)
[12]
  CFU/mL lavage fluid: 64000 CFU/mL and 520000 CFU/mL and 61000 CFU/mL and 80000 CFU/mL and 103000 CFU/mL
  Log10(CFU/mL lavage fluid): 4.81 Log10(CFU/mL lavage fluid) and 5.72 Log10(CFU/mL lavage fluid) and 4.79 Log10(CFU/mL lavage fluid) and 4.9 Log10(CFU/mL lavage fluid) and 5.01 Log10(CFU/mL lavage fluid)
[13]
  CFU/mL lavage fluid: 47000 CFU/mL and 64000 CFU/mL and 4900 CFU/mL and 1450 CFU/mL and 20400 CFU/mL
  Log10(CFU/mL lavage fluid): 4.67 Log10(CFU/mL lavage fluid) and 4.81 Log10(CFU/mL lavage fluid) and 3.69 Log10(CFU/mL lavage fluid) and 3.16 Log10(CFU/mL lavage fluid) and 4.31 Log10(CFU/mL lavage fluid)
[14]
  CFU/mL lavage fluid: <5 CFU/mL and 21100 CFU/mL and 105 CFU/mL and 6100 CFU/mL
  Log10(CFU/mL lavage fluid): <0.70 Log10(CFU/mL lavage fluid) and 4.32 Log10(CFU/mL lavage fluid) and 2.02 Log10(CFU/mL lavage fluid) and 3.79 Log10(CFU/mL lavage fluid)
[15]
  CFU/mL lavage fluid: <5 CFU/mL and 545 CFU/mL and 85 CFU/mL and 5500 CFU/mL and 125 CFU/mL
  Log10(CFU/mL lavage fluid): <0.70 Log10(CFU/mL lavage fluid) and 2.74 Log10(CFU/mL lavage fluid) and 1.93 Log10(CFU/mL lavage fluid) and 3.74 Log10(CFU/mL lavage fluid) and 2.1 Log10(CFU/mL lavage fluid)
[16]
  CFU/mL lavage fluid: <5 CFU/mL and 205 CFU/mL
  Log10(CFU/mL lavage fluid): <0.70 Log10(CFU/mL lavage fluid) and 2.31 Log10(CFU/mL lavage fluid)
[17]
  CFU/mL lavage fluid: 7600 CFU/mL and <5 CFU/mL and 200 CFU/mL and 115 CFU/mL
  Log10(CFU/mL lavage fluid): 3.88 Log10(CFU/mL lavage fluid) and <0.70 Log10(CFU/mL lavage fluid) and 2.3 Log10(CFU/mL lavage fluid) and 2.06 Log10(CFU/mL lavage fluid)
[18]
  CFU/mL lavage fluid: 65 CFU/mL and <5 CFU/mL
  Log10(CFU/mL lavage fluid): 1.81 Log10(CFU/mL lavage fluid) and <0.70 Log10(CFU/mL lavage fluid)
[19]
  CFU/mL lavage fluid: <5 CFU/mL
  Log10(CFU/mL lavage fluid): <0.70 Log10(CFU/mL lavage fluid)
[20]
  CFU/mL lavage fluid: <5 CFU/mL
  Log10(CFU/mL lavage fluid): <0.70 Log10(CFU/mL lavage fluid)
[21]
  CFU/mL lavage fluid: 1880000 CFU/mL and 790000 CFU/mL and 670000 CFU/mL and 810000 CFU/mL and 720000 CFU/mL
  Log10(CFU/mL lavage fluid): 6.27 Log10(CFU/mL lavage fluid) and 5.9 Log10(CFU/mL lavage fluid) and 5.83 Log10(CFU/mL lavage fluid) and 5.91 Log10(CFU/mL lavage fluid) and 5.86 Log10(CFU/mL lavage fluid)
[22]
  CFU/mL lavage fluid: 380000 CFU/mL and 1120000 CFU/mL and 11300 CFU/mL and 201000 CFU/mL and 620000 CFU/mL
  Log10(CFU/mL lavage fluid): 5.58 Log10(CFU/mL lavage fluid) and 6.05 Log10(CFU/mL lavage fluid) and 4.05 Log10(CFU/mL lavage fluid) and 5.3 Log10(CFU/mL lavage fluid) and 5.79 Log10(CFU/mL lavage fluid)
[23]
  CFU/mL lavage fluid: 11500 CFU/mL and 123000 CFU/mL and 200000 CFU/mL and 830000 CFU/mL and 730000 CFU/mL
  Log10(CFU/mL lavage fluid): 4.06 Log10(CFU/mL lavage fluid) and 5.09 Log10(CFU/mL lavage fluid) and 5.3 Log10(CFU/mL lavage fluid) and 5.92 Log10(CFU/mL lavage fluid) and 5.86 Log10(CFU/mL lavage fluid)
[24]
  CFU/mL lavage fluid: 275 CFU/mL
  Log10(CFU/mL lavage fluid): 2.44 Log10(CFU/mL lavage fluid)
[25]
  CFU/mL lavage fluid: 50000 CFU/mL and 21700 CFU/mL and 23000 CFU/mL and 15500 CFU/mL and 490000 CFU/mL
  Log10(CFU/mL lavage fluid): 4.7 Log10(CFU/mL lavage fluid) and 4.34 Log10(CFU/mL lavage fluid) and 4.36 Log10(CFU/mL lavage fluid) and 4.19 Log10(CFU/mL lavage fluid) and 5.69 Log10(CFU/mL lavage fluid)
[26]
  CFU/mL lavage fluid: 7500 CFU/mL and 5100 CFU/mL and 204000 CFU/mL and 15100 CFU/mL
  Log10(CFU/mL lavage fluid): 3.88 Log10(CFU/mL lavage fluid) and 3.71 Log10(CFU/mL lavage fluid) and 5.31 Log10(CFU/mL lavage fluid) and 4.18 Log10(CFU/mL lavage fluid)
